Measurements reported in ChEMBL document CHEMBL5108044, “Discovery of a Novel Potent STAT3 Inhibitor HP590 with Dual p-Tyr705/Ser727 Inhibitory Activity for Gastric Cancer Treatment” (J Med Chem, 2022).
Calls of active or inactive are those of the source. The calls are words filed in the database; no cut-off is given here.

Tests used:
MKN-45 [1] = experiment: In vivo inhibition of STAT3 phosphorylation at Ser727 residue in human MKN-45 cells xenografted in BALB/c nude mouse at 25 to 50 mg/kg, po qd administered for 5 weeks by western blot analysis; type: functional, organism-based; conditions: dose 25-50 mg/kg
[2] = Toxicity in BALB/c nude mouse xenografted with human MKN-45 cells assessed as liver damage at 25 to 50 mg/kg, po qd administered for 5 weeks by H and E staining based analysis; type: organism-based; conditions: in vivo, 840 h, dose 25-50 mg/kg
[3] = molecular target: T1, Signal transducer and activator of transcription 3 (Homo sapiens, UniProt P40763); experiment: Inhibition of STAT3 phosphorylation at Tyr705 residue in human AGS cells upto 40 nM incubated upto 24 hrs by Western blotting analysis; type: cell-based
[4] = molecular target: T1, Signal transducer and activator of transcription 3; experiment: Inhibition of STAT3 phosphorylation at Tyr705 residue in human MKN-45 cells incubated upto 24 hrs by Western blotting analysis; type: cell-based; conditions: dose <= 40.0 nM, DDE = dose-dependent effect
[5] = molecular target: T1, Signal transducer and activator of transcription 3; experiment: Inhibition of STAT3 phosphorylation at Ser727 residue in human MGC-803 cells upto 40 nM by Western blotting analysis; type: cell-based; conditions: time <= 24.0 hrs, TDE = time-dependent effect
[6] = molecular target: T1, Signal transducer and activator of transcription 3; experiment: Binding affinity to human STAT3 (127 to 722 residues) assessed as dissociation constant by MST assay
[7] = molecular target: T1, Signal transducer and activator of transcription 3; experiment: Binding affinity to human STAT3-SH2 domain (127 to 722 residues) assessed as dissociation constant by MST assay
[8] = molecular target: T1, Signal transducer and activator of transcription 3; experiment: Binding affinity to human STAT3 transfected in HEK293T cells assessed as change in melting temperature at 5 uM by thermal shift assay; type: cell-based
[9] = molecular target: T1, Signal transducer and activator of transcription 3; experiment: Binding affinity to human STAT3 transfected in MKN-45 cells assessed as change in melting temperature at 5 uM by thermal shift assay; type: cell-based
[10] = molecular target: Tyrosine-protein kinase JAK2 (Homo sapiens, UniProt O60674); experiment: Inhibition of JAK2 (unknown origin)
[11] = molecular target: Mitogen-activated protein kinase 8 (Homo sapiens, UniProt P45983); experiment: Inhibition of JNK1 (unknown origin)
[12] = molecular target: T1, Signal transducer and activator of transcription 3; experiment: Inhibition of STAT3 in human MGC-803 cells assessed as downregulation of c-Myc expression incubated up to 24 hrs by western blot analysis; type: cell-based; conditions: dose <= 40.0 nM, DDE = dose-dependent effect
[13] = molecular target: T1, Signal transducer and activator of transcription 3; experiment: Inhibition of STAT3 in human MKN-45 cells assessed as downregulation of cyclin D1 expression at 10 to 40 nM incubated for 24 hrs by RT-PCR analysis; type: cell-based; conditions: dose 10-40 nM
[14] = molecular target: T1, Signal transducer and activator of transcription 3; experiment: Inhibition of STAT3 in human MKN-45 cells assessed as downregulation of c-myc expression at 10 to 40 nM incubated for 24 hrs by RT-PCR analysis; type: cell-based; conditions: dose 10-40 nM
[15] = molecular target: T1, Signal transducer and activator of transcription 3; experiment: Inhibition of STAT3 in human AGS cells assessed as downregulation of cyclin D1 expression at 10 to 40 nM incubated for 24 hrs by RT-PCR analysis; type: cell-based; conditions: dose 10-40 nM
[16] = molecular target: T1, Signal transducer and activator of transcription 3; experiment: Inhibition of IL-6 induced STAT3 phosphorylation at Tyr705 residue in human MGC-803 cells at 40 nM preincubated for 24 hrs followed by IL-6 stimulation and measured after 30 min by Western blotting analysis; type: cell-based; conditions: time 24.5 hrs
[17] = molecular target: T1, Signal transducer and activator of transcription 3; experiment: Inhibition of phosphorylated STAT3 nuclear translocation at Tyr705 residue in human MKN-45 cells measured at 5 to 40 nM by immunoblotting analysis; type: cell-based; conditions: dose 5-40 nM
MKN-45 [18] = experiment: Inhibition of mitochondrial respiration in human MKN-45 cells assessed as maximal oxygen consumption rate at 1 to 100 nM incubated for 1 hr by Seahorse XF24 extracellular flux analyzer; type: functional, cell-based; conditions: dose 1-100 nM
MKN-45 [19] = experiment: Inhibition of mitochondrial respiration in STAT3 knockdown human MKN-45 cells assessed as oxygen consumption rate incubated for 80 mins […]; type: functional, cell-based
[20] = Antiproliferative activity against human HPNE cells assessed as cell viability measured upto 1 uM incubated for 72 hrs by MTS assay; type: toxicity, cell-based; conditions: htert-hpne
NIH3T3 = experiment: Antiproliferative activity against […] cells assessed as cell viability measured upto 1 uM incubated for 72 hrs by MTS assay; type: toxicity, cell-based; conditions: mouse, nih3t3, 72 h
MKN-45 [21] = experiment: Inhibition of colony formation in human MKN-45 cells assessed as reduction in number of colonies incubated for 5 to 7 days by crystal violet staining based assay; type: functional, cell-based; conditions: dose <= 20.0 nM, time 5-7 day, DDE = dose-dependent effect
MKN-45 [22] = experiment: Induction of apoptosis in human MKN-45 cells assessed as early apoptic cells 10 nM incubated for 48 hrs by FITC-annexin V/propidium iodide staining based flow cytometry (reference value: 2.79%); type: functional
MKN-45 [23] = experiment: Induction of apoptosis in human MKN-45 cells assessed as viable cells at 20 nM incubated for 48 hrs by FITC-annexin V/propidium iodide staining based flow cytometry (reference value: 68%); type: functional; conditions: read-out: Activity
MKN-45 [24] = experiment: Induction of apoptosis in human MKN-45 cells assessed as late apoptic cells 20 nM incubated for 48 hrs by FITC-annexin V/propidium iodide staining based flow cytometry (reference value: 17.9%); type: functional
AGS = experiment: Induction of apoptosis in human AGS cells assessed as necrotic cells 5 nM incubated for 48 hrs by FITC-annexin V/propidium iodide staining based flow cytometry (reference value: 2.70%); type: functional
[25] = Cmax in ICR mouse plasma at 1 mg/kg, iv measured up to 24 hrs by LC-MS/MS analysis; type: ADME, organism-based; parameters: time < 24 hrs, dose 1 mg/kg, route iv
[26] = AUC (0 to infinity) in ICR mouse plasma at 1 mg/kg, iv measured up to 24 hrs by LC-MS/MS analysis; type: ADME, organism-based; parameters: time < 24 hrs, dose 1 mg/kg, route iv
[27] = Clearance in ICR mouse plasma at 1 mg/kg, iv measured up to 24 hrs by LC-MS/MS analysis; type: ADME, organism-based
MKN-45 [28] = experiment: Potency index, ratio of IC50 for BBI608 to IC50 for test compound for antiproliferative activity against human MKN-45 cells assessed as reduction in cell viability incubated for 72 hrs by MTS assay; type: functional
MKN-45 [29] = experiment: Antitumor activity against human MKN-45 cells xenografted in BALB/c nude mouse assessed as reduction in Ki67 gene expression at 25 to 50 mg/kg, po qd administered for 5 weeks immunohistochemical analysis; type: functional, organism-based; conditions: dose 25-50 mg/kg
[30] = Toxicity in BALB/c nude mouse xenografted with human MKN-45 cells assessed as kidney damage at 25 to 50 mg/kg, po qd administered for 5 weeks by H and E staining based analysis; type: organism-based; conditions: in vivo, 840 h, dose 25-50 mg/kg
[31] = Toxicity in BALB/c nude mouse xenografted with human MKN-45 cells assessed as lung damage at 25 to 50 mg/kg, po qd administered for 5 weeks by H and E staining based analysis; type: organism-based; conditions: in vivo, 840 h, dose 25-50 mg/kg
[32] = Toxicity in […] mouse assessed as body weight loss at 25 to 50 mg/kg, po qd administered for 5 weeks; type: organism-based; conditions: in vivo, 840 h, dose 25-50 mg/kg
[33] = Toxicity in […] mouse xenografted with human MKN-45 cells assessed as liver damage at 25 to 50 mg/kg, po qd administered for 5 weeks by H and E staining based analysis; type: organism-based; conditions: in vivo, 840 h, dose 25-50 mg/kg
[34] = Toxicity in […] mouse xenografted with human MKN-45 cells assessed as lung damage at 25 to 50 mg/kg, po qd administered for 5 weeks by H and E staining based analysis; type: organism-based; conditions: in vivo, 840 h, dose 25-50 mg/kg

T1 sequence (P40763 whole entry): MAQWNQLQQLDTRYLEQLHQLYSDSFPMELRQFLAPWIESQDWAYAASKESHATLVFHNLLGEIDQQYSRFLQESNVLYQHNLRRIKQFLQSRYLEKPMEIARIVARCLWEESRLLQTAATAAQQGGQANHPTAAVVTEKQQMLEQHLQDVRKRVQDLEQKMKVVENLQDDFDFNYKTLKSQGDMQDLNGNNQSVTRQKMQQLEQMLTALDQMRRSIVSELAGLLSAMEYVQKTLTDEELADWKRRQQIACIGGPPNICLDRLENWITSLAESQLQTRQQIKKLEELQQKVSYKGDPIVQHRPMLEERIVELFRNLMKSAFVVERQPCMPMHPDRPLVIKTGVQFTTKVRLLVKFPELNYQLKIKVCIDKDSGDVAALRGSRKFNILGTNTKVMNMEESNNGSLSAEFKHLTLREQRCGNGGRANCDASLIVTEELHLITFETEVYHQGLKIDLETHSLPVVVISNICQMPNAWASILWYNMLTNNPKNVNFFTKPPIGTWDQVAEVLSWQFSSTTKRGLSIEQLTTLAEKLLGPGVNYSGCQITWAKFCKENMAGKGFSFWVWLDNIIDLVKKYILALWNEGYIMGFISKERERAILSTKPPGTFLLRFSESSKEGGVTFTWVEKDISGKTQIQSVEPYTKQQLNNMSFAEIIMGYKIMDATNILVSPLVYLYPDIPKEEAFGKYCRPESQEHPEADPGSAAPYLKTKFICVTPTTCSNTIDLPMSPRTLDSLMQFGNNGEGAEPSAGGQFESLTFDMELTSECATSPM
Tyrosine-protein kinase JAK2, sequence (O60674 whole entry): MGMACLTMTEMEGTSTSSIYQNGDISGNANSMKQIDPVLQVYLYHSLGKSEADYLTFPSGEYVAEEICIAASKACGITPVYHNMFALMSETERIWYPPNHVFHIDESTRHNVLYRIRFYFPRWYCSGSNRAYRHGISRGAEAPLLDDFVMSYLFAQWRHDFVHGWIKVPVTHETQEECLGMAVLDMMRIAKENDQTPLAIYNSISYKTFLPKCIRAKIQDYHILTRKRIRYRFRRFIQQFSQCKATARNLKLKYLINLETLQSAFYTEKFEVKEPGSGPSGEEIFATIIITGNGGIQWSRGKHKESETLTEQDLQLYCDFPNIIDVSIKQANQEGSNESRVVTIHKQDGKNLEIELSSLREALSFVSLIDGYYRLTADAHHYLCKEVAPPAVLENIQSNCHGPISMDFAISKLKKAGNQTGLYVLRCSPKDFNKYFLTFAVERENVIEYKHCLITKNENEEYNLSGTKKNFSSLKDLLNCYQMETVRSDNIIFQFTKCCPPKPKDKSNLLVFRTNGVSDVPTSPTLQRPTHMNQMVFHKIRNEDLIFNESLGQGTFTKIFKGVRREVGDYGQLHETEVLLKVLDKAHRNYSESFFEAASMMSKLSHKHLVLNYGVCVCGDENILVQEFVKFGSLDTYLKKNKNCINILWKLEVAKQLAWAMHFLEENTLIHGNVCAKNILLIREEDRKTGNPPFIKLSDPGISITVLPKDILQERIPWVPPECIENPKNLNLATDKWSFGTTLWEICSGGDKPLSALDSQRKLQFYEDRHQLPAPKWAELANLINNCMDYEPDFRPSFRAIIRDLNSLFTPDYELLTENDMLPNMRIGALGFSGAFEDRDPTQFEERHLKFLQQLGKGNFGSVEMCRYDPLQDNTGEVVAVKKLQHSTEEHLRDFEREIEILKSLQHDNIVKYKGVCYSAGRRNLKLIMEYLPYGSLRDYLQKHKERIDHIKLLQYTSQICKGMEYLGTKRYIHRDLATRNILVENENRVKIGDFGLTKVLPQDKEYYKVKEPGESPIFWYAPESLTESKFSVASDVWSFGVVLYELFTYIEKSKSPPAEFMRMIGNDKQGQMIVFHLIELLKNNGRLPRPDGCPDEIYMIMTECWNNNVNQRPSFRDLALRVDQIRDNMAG
Mitogen-activated protein kinase 8, sequence (P45983 whole entry): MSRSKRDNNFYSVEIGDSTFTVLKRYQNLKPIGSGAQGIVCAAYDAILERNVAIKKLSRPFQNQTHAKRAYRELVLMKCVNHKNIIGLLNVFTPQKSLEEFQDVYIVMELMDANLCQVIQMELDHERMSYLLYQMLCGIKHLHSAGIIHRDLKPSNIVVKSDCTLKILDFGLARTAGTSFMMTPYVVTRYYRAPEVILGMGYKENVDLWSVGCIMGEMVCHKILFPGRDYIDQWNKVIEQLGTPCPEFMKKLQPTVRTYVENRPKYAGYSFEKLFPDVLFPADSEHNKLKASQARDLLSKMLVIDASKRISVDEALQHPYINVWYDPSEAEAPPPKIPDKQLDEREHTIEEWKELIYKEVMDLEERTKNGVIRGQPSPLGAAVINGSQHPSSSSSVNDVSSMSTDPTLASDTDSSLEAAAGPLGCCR

For `O=C(c1ccc(-c2noc(-c3ccc(C(F)(F)F)cc3)n2)cc1)N1CCN(Cc2ccc(OCC(F)(F)F)cc2)CC1`, the inhibition (MKN-45 [1]) was “Active”, the Activity [2] was “Non-Toxic” and the inhibition [3] was 100%. The inhibition [4] was “Dde”, the inhibition [5] was “Tde” and the Kd [6] was 76.4 nM. For the same compound, the Kd [7] was 114 nM, the Activity [8] was “Active” and the Activity [9] was “Active”. The IC50 [10] was over 10000 nM, the IC50 [11] was over 10000 nM and the inhibition [12] was “Dde”. For the same compound, the inhibition [13] was “Active”, the inhibition [14] was “Active” and the inhibition [15] was “Active”. For the same compound, the inhibition [16] was “Active”, the inhibition [17] was “Active” and the inhibition (MKN-45 [18]) was “Active”. For the same compound, the inhibition (MKN-45 [19]) was “Active”, the Activity [20] was “Non-Toxic” and the Activity (NIH3T3) was “Non-Toxic”. The inhibition (MKN-45 [21]) was “Dde”, the Activity (MKN-45 [22]) was 5.7% and the viability at 0.02 µM (MKN-45 [23]) was 60.7%. It also gave an Activity (MKN-45 [24]) of 22%, an Activity (AGS) of 3.96% and a Cmax [25] of 666 ng/mL. For the same compound, the AUC(0-inf) [26] was 2270 ng·h/mL, the clearance [27] was 7.33 mL/min/kg and the “Ratio IC50” value (MKN-45 [28]) was 30. For the same compound, the Activity (MKN-45 [29]) was “Active”, the Activity [30] was “Non-Toxic” and the Activity [31] was “Non-Toxic”. The Activity [32] was “Non-Toxic”, the Activity [33] was “Non-Toxic” and the Activity [34] was “Non-Toxic”.
